“And” between values parts separate entries of the source, which are not always exact repeats. Equal values may be shown once. Read-outs that look alike come from different tables or passages of the source.
System: ciliary muscle
Test: Atropine inhibition of acetylcholine-induced ciliary muscle contraction (Magnus tube)
Format: cell-based, rabbit
Settings: for inhibition at 1 µM: Oryctolagus cuniculus, atropine 10^-6 mol/L vs control; for Tension of Contraction (g), Tables 2 and 6 / Tension of Contraction (g), Tables 4 and 8 / Tension of Contraction (g), Tables 3 and 7: individual enucleated organs 1-2
Procedure: The ciliary muscle obtained in EXAMPLE 1 was suspended in a Magnus tube filled with Krebs-Henseleit solution bubbled through with a mixed gas of 5% carbon dioxide and 95% oxygen. Krebs-Henseleit solution was prepared as follows. A-solution, B-solution, C-solution, water and D-solution were mixed at a ratio of 1:1:1:6:1 in the following order. First A-solution, B-solution and C-solution were mixed in the above ratio followed by the addition of distilled water. After rigorous mixing, D-solution was added. The solution thus prepared was shielded from light and used after heating at 37 degrees C.
The sample in the Magnus tube was suspended at a loading weight of 0.4 g using a tension transducer (Isometric Transducer, FD Pick-up TB-611 T type, made by Nihon Kohden Corporation, Tokyo, Japan). After equilibration for 30 minutes, acetylcholine (made by SIGMA, St. Louis, Mo.) at a final concentration of 10-4 mol/L was added for the first stimulation. After tension reached a plateau value, the sample was washed with a buffer until the tension returned to the baseline. This procedure was repeated nine times.
The tension of the sample upon each stimulation was recorded by the data collection software (VISUAL DESIGNER ver. 2.3, made by INTELLIGENT INSTRUMENTATION, Tucson, Ariz.) via the tension transducer, an input box (JD-112S type, made by Nihon Kohden Corporation), an amplifier for pressure strain (AP-621G type, made by Nihon Kohden Corporation) and an A.D. conversion board (PCI-20428W, made by INTELLIGENT INSTRUMENTATION).
The net tension was calculated by subtracting the baseline tension from the tension observed after stimulation, and this was defined as the contraction rate. The first net tension, i.e., tension at the first stimulation—baseline tension, was set as a contraction rate of 100%.
In addition, the sample in the Magnus tube was treated with atropine at a final concentration of 10-6 mol/L and subjected to acetylcholine stimulation as described above, in order to confirm whether the tension of the sample was in fact due to stimulation by acetylcholine.

[1] = atropine 10^-6 mol/L, baseline tension data set
[2] = atropine 10^-6 mol/L, net tension data set
[3] = atropine 10^-6 mol/L, tension after acetylcholine stimulation data set

## CN1[C@@H]2CC[C@H]1C[C@@H](OC(=O)C(CO)c1ccccc1)C2 (stereo partly shown) [atropine]
Baseline tension data set, read-out: Inhibition Value (%), Table 6
  inhibition at 1 µM: 84.6%
Net tension data set, read-out: Inhibition Value (%), Table 8
  inhibition at 1 µM: 75.6%
Tension after acetylcholine stimulation data set, read-out: Inhibition Value (%), Table 7
  inhibition at 1 µM: 82%
Atropine 10^-6 mol/L
  contraction of the ciliary muscle elicited by acetylcholine: inhibited
[1]
  Tension of Contraction, Average ± standard deviation, Table 6: 0.0245 ± 0.0024 g
  Tension of Contraction (g), Tables 2 and 6: 0.0228 g and 0.0262 g
Atropine 10^-6 mol/L, baseline tension data set, listed as Artopine
  Tension of Contraction (g), Tables 2 and 6: 0.0228 g and 0.0262 g
[2]
  Tension of Contraction, Average ± standard deviation, Table 8: 0.0156 ± 0.0076 g
  Tension of Contraction (g), Tables 4 and 8: 0.0102 g and 0.0210 g
Atropine 10^-6 mol/L, net tension data set, listed as Artopine
  Tension of Contraction (g), Tables 4 and 8: 0.0102 g and 0.0210 g
[3]
  Tension of Contraction, Average ± standard deviation, Table 7: 0.0401 ± 0.0100 g
  Tension of Contraction (g), Tables 3 and 7: 0.0330 g and 0.0472 g
Atropine 10^-6 mol/L, tension after acetylcholine stimulation data set, listed as Artopine
  Tension of Contraction (g), Tables 3 and 7: 0.0330 g and 0.0472 g
